This note sets out measurements from ChEMBL document CHEMBL1938289, “Facile synthesis of tetracyclic azepine and oxazocine derivatives and their potential as MAPKAP-K2 (MK2) inhibitors” (Bioorg Med Chem Lett, 2012).

In brackets after ≈: the same amount, converted by molar mass. Activity calls are given as the source filed them. The calls are words filed in the database; no cut-off is given here. Bounds are passed on as bounds.

As a reminder, the IC50 is the midpoint of a concentration-inhibition curve. One may read the EC50 as the concentration needed to bring the measured effect to its halfway point. The low end stands for an effect from little substance, the high end for a need for much substance. As a reminder, the solubility (kinetic) is the concentration staying in solution when a stock, usually in DMSO, is diluted into the medium.

The target of data set [1] is T1, MAP kinase-activated protein kinase 2 (Homo sapiens, UniProt P49137). Kind of data set: Inhibition of MK2 using TAMRA-labeled peptide as substrate pre-incubated for 30 mins prior substrate addition measured after 30 mins incubation in dark using fluorescence polarization assay. (In general: Polarisation of emitted light reports the rotation of a fluorescent probe.)
Target sequence in this assay (P49137 whole entry): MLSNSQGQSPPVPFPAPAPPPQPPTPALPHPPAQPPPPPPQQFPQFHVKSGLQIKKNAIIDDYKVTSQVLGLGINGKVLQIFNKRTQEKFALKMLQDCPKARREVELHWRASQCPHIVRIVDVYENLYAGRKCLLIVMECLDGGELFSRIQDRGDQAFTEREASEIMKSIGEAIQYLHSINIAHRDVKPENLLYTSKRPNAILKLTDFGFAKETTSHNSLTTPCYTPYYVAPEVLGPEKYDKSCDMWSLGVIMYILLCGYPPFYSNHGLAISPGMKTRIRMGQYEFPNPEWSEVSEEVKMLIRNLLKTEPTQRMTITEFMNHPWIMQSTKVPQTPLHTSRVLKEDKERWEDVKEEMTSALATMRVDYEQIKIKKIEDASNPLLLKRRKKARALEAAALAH

In data set [2] the target is T1, MAP kinase-activated protein kinase 2. Kind of data set: Inhibition of MK2-mediated HSP27 phosphorylation at Ser78 in LPS-stimulated human THP-1 cells pre-incubated for 60 mins before LPS treatment measured after 60 mins. The data set is classed as cell-based.
Target sequence in this assay (P49137 whole entry): as above
Data set [3] in a line: Kinetic solubility of the compound at pH 7.4. Conditions: buffer.
Data set [4] concerns the target T1, MAP kinase-activated protein kinase 2. Kind of data set: Noncompetitive inhibition of MK2 using TAMRA-labeled peptide as substrate.
Target sequence in this assay (P49137 whole entry, looked up): as the sequence (P49137 whole entry) above

In data set [1], `N#Cc1ccc(-c2cc3c(o2)-c2nccn2-c2ccc(N4CCNCC4)cc2C3)cc1` registered an IC50 of 2.9 nM. Besides, the concentration for a half-maximal effect (EC50) in data set [2] stood at 260 nM. Also, the solubility (kinetic) in data set [3] was less than 16 µM.

As to `O=C1Nc2ccc(N3CCNCC3)cc2OCc2cc(-c3ccc(Cl)cc3)oc21`, the half-inhibitory concentration (IC50) in data set [1] is 110 nM.

In turn, `Clc1ccc(-c2cc3c(o2)-c2nccn2-c2ccc(N4CCNCC4)cc2OC3)cc1` showed an IC50 in data set [1] of 18 nM. The kinetic solubility in data set [3] was determined as 38 µM (≈ 16.5 µg/mL). In addition, the inhibition result in data set [4] is “Active”.

As for `Clc1ccc(-c2cc3c(o2)-c2nccn2-c2ccc(N4CCNCC4)cc2C3)cc1`, the IC50 in data set [1] was determined as 7 nM. Besides, the EC50 in data set [2] was 1500 nM. In addition, the kinetic solubility in data set [3] came out at 20 µM (≈ 8.34 µg/mL).

For the compound `Cc1nnc2n1-c1ccc(N3CCNCC3)cc1Cc1cc(-c3ccc(Cl)cc3)oc1-2`, it took 880 nM to reach half-maximal inhibition in data set [1] (IC50). Moreover, the solubility (kinetic) in data set [3] amounted to 10 µM (≈ 4.32 µg/mL).

In turn, `Fc1ccc(-c2cc3c(o2)-c2nncn2-c2ccc(N4CCNCC4)cc2C3)cc1` came in with a 50% inhibitory concentration (IC50) in data set [1] of 15 nM. Besides, the solubility (kinetic) in data set [3] came out at 33 µM (≈ 13.2 µg/mL).

As for `Cc1cnc2n1-c1ccc(N3CCNCC3)cc1Cc1cc(-c3ccc(Cl)cc3)oc1-2`, half-maximal inhibition in data set [1] (IC50) was put at 9.2 nM. For the same compound, the EC50 in data set [2] turned out to be 2500 nM.

Consider `N#Cc1ccc(-c2cc3c(o2)-c2nncn2-c2ccc(N4CCNCC4)cc2C3)cc1`, for which the concentration for half-maximal inhibition (IC50) in data set [1] was found to be 3.8 nM. Also, the EC50 in data set [2] is 260 nM. Further, in data set [3], the kinetic solubility stood at 16 µM (≈ 6.54 µg/mL). The inhibition result in data set [4] is “Active”.

`Clc1ccc(-c2cc3c(o2)-c2nncn2-c2ccc(N4CCNCC4)cc2C3)cc1` came in with an IC50 in data set [1] of 9.3 nM. For the same compound, it took 2100 nM to reach a half-maximal effect in data set [2] (EC50). Also, in data set [3], the solubility (kinetic) was found to be 10 µM (≈ 4.18 µg/mL).

The compound `O=C(c1ccc(-c2ccc(Cl)cc2)o1)N(Cc1ccccn1)c1ccc(N2CCNCC2)cc1` yielded a solubility (kinetic) in data set [3] of more than 200 µM.
